# From publication PMC7872314, “Modeling Bioavailable Concentrations in Zebrafish Cell Lines and Embryos Increases the Correlation of Toxicity Potencies across Test Systems” (Environmental Science & Technology, 2020)
# Where two headings read alike, the source gives them in different places.
# What was measured:
# [1] = ref Comptox, PubChem or DrugBank; cited from earlier work
# [2] = tested on: zebrafish embryos; test: animal or person; format: in vivo, zebrafish (Danio rerio); settings: for EC50: Danio rerio
# [3] = tested on: ZFL (hepatocytes) cell line; test: cells; format: cell-based, zebrafish (Danio rerio); settings: Danio rerio, Hepatocyte
# [4] = tested on: zebrafish cell lines vs zebrafish embryo; test: Potency ratios IC50;x/EC50;x (cytotoxicity assays vs mFET); design: species or system zebrafish (Danio rerio)
# [5] = tested on: ZF4 (fibroblasts) cell line; test: BCA assay (MTS/BCA multiplex), protein amount; format: cell-based, zebrafish (Danio rerio); settings: Danio rerio, Fibroblast
# [6] = tested on: ZF4 (fibroblasts) cell line; test: Neutral red, absorbance (NRa), AB/CFDA/NR multiplex, lysosome stability; format: cell-based, zebrafish (Danio rerio); settings: Danio rerio, Fibroblast
# [7] = tested on: zebrafish embryos; design: method as in earlier work; settings: nominal, cited from earlier work
# [8] = tested on: ZFL (hepatocytes) cell line; test: cells; format: cell-based, zebrafish (Danio rerio); settings: Danio rerio, Hepatocyte; remark: listed apart in the source
# [9] = tested on: ZF4 (fibroblasts) cell line; test: ATP assay (ATP/LDH multiplex), ATP metabolism; format: cell-based, zebrafish (Danio rerio); settings: Danio rerio, Fibroblast
# [10] = tested on: ZF4 (fibroblasts) cell line; test: alamarBlue (AB) endpoint of AB/CFDA/NR multiplex, cellular respiration; format: cell-based, zebrafish (Danio rerio); settings: Danio rerio, Fibroblast
# [11] = tested on: ZF4 and ZFL cell lines; test: Cytotoxicity assays, all endpoints, both cell lines (mean/range); format: cell-based, zebrafish (Danio rerio); settings: 48 h
# [12] = tested on: ZF4 (fibroblasts) cell line; test: CFDA endpoint of AB/CFDA/NR multiplex, membrane stability; format: cell-based, zebrafish (Danio rerio); settings: Danio rerio, Fibroblast
# [13] = tested on: ZFL (hepatocytes) cell line; test: cells; format: cell-based, zebrafish (Danio rerio); settings: Danio rerio, Hepatocyte; remark: listed apart in the source
# [14] = tested on: ZF4 (fibroblasts) cell line; test: Neutral red, fluorescence (NRf), AB/CFDA/NR multiplex, lysosome stability; format: cell-based, zebrafish (Danio rerio); settings: Danio rerio, Fibroblast
# [15] = tested on: ZFL (hepatocytes) cell line; test: cells; format: cell-based, zebrafish (Danio rerio); settings: Danio rerio, Hepatocyte; remark: listed apart in the source
# [16] = tested on: ZF4 (fibroblasts) cell line; test: MTS assay (MTS/BCA multiplex), NAD(P)H metabolism; format: cell-based, zebrafish (Danio rerio); settings: Danio rerio, Fibroblast
# [17] = tested on: ZFL (hepatocytes) cell line; test: cells; format: cell-based, zebrafish (Danio rerio); settings: Danio rerio, Hepatocyte; remark: listed apart in the source
# [18] = tested on: ZFL (hepatocytes) cell line; test: cells; format: cell-based, zebrafish (Danio rerio); settings: Danio rerio, Hepatocyte; remark: listed apart in the source
# [19] = tested on: ZFL (hepatocytes) cell line; test: cells; format: cell-based, zebrafish (Danio rerio); settings: Danio rerio, Hepatocyte; remark: listed apart in the source
structure (smiles),measurement,setting,value
"CC1(C)C(C=C(Cl)c2ccc(Cl)cc2)C1C(=O)OC(C#N)c1ccc(F)c(Oc2ccccc2)c1 (centres unmarked) [Flumethrin, flumethrin]",Physiological charge,[1],0
same,logKoa,[1],11.7
same,logKow,[1],6.97
same,difference in toxicity (EC50;nom) between 48 hpf and 144 hpf,[2]; 48 hpf time point less sensitive than 144 hpf,approximately the same
same,log EC50;nom (mFET),"[2]; 48 hpf, nominal, log10, listed as Flu",-6.562 M
same,EC50,"[2]; 48 hpf, nominal, log10, read-out: log EC50;nom (mFET) (converted)",0.275 µM
same,EC50,"[2]; 48 hpf, nominal, read-out: EC50;nom (embryo)",0.14 µg/mL
same,EC50,[2]; read-out: EC50 48hpf,0.274 µM
same,EC50,[2]; read-out: EC50;nom (mFET),0.274 µM
same,IC50,"[3]; ATP - ZFL, log10 of IC50, read-out: LogIC50 (converted)",441 µM
same,IC50,"[3]; ATP - ZFL, read-out: IC50",441 µM
same,IC50,"[3]; ZFL, 48 h exposure, nominal, log10, read-out: logIC50 (log10 IC50;nom) ATP (converted)",437 µM
same,IC50,"[3]; ZFL, 48 h exposure, nominal, read-out: IC50;nom ATP",441 µM
same,in vitro toxicity (IC50;free) higher than EC50;nom,[4]; ZF4 NRa endpoint vs embryo,10 fold
same,potency ratio IC50;nom/EC50;nom (median),"[4]; median over cytotoxicity endpoints, nominal, 48 h cells / 48 hpf mFET",698
same,difference in sensitivity between embryo (EC50;nom) and cells (IC50;nom),"[4]; nominal concentrations, higher potency in the mFET",two to three log-scales more sensitive in the mFET
same,"potency ratio IC50;nom/EC50;nom, BCA-ZFL endpoint","[4]; single endpoint BCA-ZFL, less sensitive in the cell-based assay","10,000 fold"
same,IC50,"[5]; BCA - ZF4, log10 of IC50, read-out: LogIC50 (converted)",42.1 µM
same,IC50,"[5]; BCA - ZF4, read-out: IC50",42.1 µM
same,IC50,"[5]; ZF4, 48 h exposure, nominal, log10, read-out: logIC50 (log10 IC50;nom) BCA (converted)",41.7 µM
same,IC50,"[5]; ZF4, 48 h exposure, nominal, read-out: IC50;nom BCA",42.1 µM
same,IC50,"[6]; NR-abs - ZF4, log10 of IC50, read-out: LogIC50 (converted)",104 µM
same,IC50,"[6]; NR-abs - ZF4, read-out: IC50",104 µM
same,IC50,"[6]; ZF4, 48 h exposure, nominal, log10, read-out: logIC50 (log10 IC50;nom) NRa (converted)",105 µM
same,IC50,"[6]; ZF4, 48 h exposure, nominal, read-out: IC50;nom NRa",104 µM
same,IC50,"[6]; ZF4 cell line, NRa endpoint, nominal, read-out: IC50;nom",53.1 µg/mL
same,EC50,"[7]; 144 hpf, converted",0.216 µM
same,logEC50 144 hpf,[7]; log10,-6.667 M
same,IC50,"[8]; BCA - ZFL, log10 of IC50, read-out: LogIC50 (converted)",6130 µM
same,IC50,"[8]; BCA - ZFL, read-out: IC50",6130 µM
same,IC50,"[8]; ZFL, 48 h exposure, nominal, log10, read-out: logIC50 (log10 IC50;nom) BCA (converted)",6170 µM
same,IC50,"[8]; ZFL, 48 h exposure, nominal, read-out: IC50;nom BCA",6130 µM
same,IC50,"[9]; ATP - ZF4, log10 of IC50, read-out: LogIC50 (converted)",317 µM
same,IC50,"[9]; ATP - ZF4, read-out: IC50",317 µM
same,IC50,"[9]; ZF4, 48 h exposure, nominal, log10, read-out: logIC50 (log10 IC50;nom) ATP (converted)",316 µM
same,IC50,"[9]; ZF4, 48 h exposure, nominal, read-out: IC50;nom ATP",317 µM
same,IC50,"[10]; AB - ZF4, log10 of IC50, read-out: LogIC50 (converted)",351 µM
same,IC50,"[10]; AB - ZF4, read-out: IC50",351 µM
same,IC50,"[10]; ZF4, 48 h exposure, nominal, log10, read-out: logIC50 (log10 IC50;nom) AB (converted)",347 µM
same,IC50,"[10]; ZF4, 48 h exposure, nominal, read-out: IC50;nom AB",351 µM
same,IC50,"[11]; Danio rerio, read-out: Mean log IC50nom, mean of all cytotoxicity endpoints (without LDH) in ZF4 and ZFL, 48 h, log10 (converted)",229 µM
same,Mean log IC50nom,"[11]; mean of all cytotoxicity endpoints (without LDH) in ZF4 and ZFL, log10, listed as Flu",-3.637 M
same,IC50,"[12]; CFDA - ZF4, log10 of IC50, read-out: LogIC50 (converted)",170 µM
same,IC50,"[12]; CFDA - ZF4, read-out: IC50",170 µM
same,IC50,"[12]; ZF4, 48 h exposure, nominal, log10, read-out: logIC50 (log10 IC50;nom) CFDA (converted)",170 µM
same,IC50,"[12]; ZF4, 48 h exposure, nominal, read-out: IC50;nom CFDA",170 µM
same,IC50,"[13]; AB - ZFL, log10 of IC50, read-out: LogIC50 (converted)",244 µM
same,IC50,"[13]; AB - ZFL, read-out: IC50",244 µM
same,IC50,"[13]; ZFL, 48 h exposure, nominal, log10, read-out: logIC50 (log10 IC50;nom) AB (converted)",245 µM
same,IC50,"[13]; ZFL, 48 h exposure, nominal, read-out: IC50;nom AB",244 µM
same,IC50,"[14]; NR-fluo - ZF4, log10 of IC50, read-out: LogIC50 (converted)",213 µM
same,IC50,"[14]; NR-fluo - ZF4, read-out: IC50",213 µM
same,IC50,"[14]; ZF4, 48 h exposure, nominal, log10, read-out: logIC50 (log10 IC50;nom) NRf (converted)",214 µM
same,IC50,"[14]; ZF4, 48 h exposure, nominal, read-out: IC50;nom NRf",213 µM
same,IC50,"[15]; NR-fluo - ZFL, log10 of IC50, read-out: LogIC50 (converted)",159 µM
same,IC50,"[15]; NR-fluo - ZFL, read-out: IC50",159 µM
same,IC50,"[15]; ZFL, 48 h exposure, nominal, log10, read-out: logIC50 (log10 IC50;nom) NRf (converted)",158 µM
same,IC50,"[15]; ZFL, 48 h exposure, nominal, read-out: IC50;nom NRf",159 µM
same,IC50,"[16]; MTS - ZF4, log10 of IC50, read-out: LogIC50 (converted)",83.1 µM
same,IC50,"[16]; MTS - ZF4, read-out: IC50",83.1 µM
same,IC50,"[16]; ZF4, 48 h exposure, nominal, log10, read-out: logIC50 (log10 IC50;nom) MTS (converted)",83.2 µM
same,IC50,"[16]; ZF4, 48 h exposure, nominal, read-out: IC50;nom MTS",83.1 µM
same,IC50,"[17]; NR-abs - ZFL, log10 of IC50, read-out: LogIC50 (converted)",160 µM
same,IC50,"[17]; NR-abs - ZFL, read-out: IC50",160 µM
same,IC50,"[17]; ZFL, 48 h exposure, nominal, log10, read-out: logIC50 (log10 IC50;nom) NRa (converted)",158 µM
same,IC50,"[17]; ZFL, 48 h exposure, nominal, read-out: IC50;nom NRa",160 µM
same,IC50,"[18]; CFDA - ZFL, log10 of IC50, read-out: LogIC50 (converted)",118 µM
same,IC50,"[18]; CFDA - ZFL, read-out: IC50",118 µM
same,IC50,"[18]; ZFL, 48 h exposure, nominal, log10, read-out: logIC50 (log10 IC50;nom) CFDA (converted)",117 µM
same,IC50,"[18]; ZFL, 48 h exposure, nominal, read-out: IC50;nom CFDA",118 µM
same,IC50,"[19]; MTS - ZFL, log10 of IC50, read-out: LogIC50 (converted)",414 µM
same,IC50,"[19]; MTS - ZFL, read-out: IC50",414 µM
same,IC50,"[19]; ZFL, 48 h exposure, nominal, log10, read-out: logIC50 (log10 IC50;nom) MTS (converted)",417 µM
same,IC50,"[19]; ZFL, 48 h exposure, nominal, read-out: IC50;nom MTS",414 µM
